Source: patent publication US20250145633A1, “SUBSTITUTED FURANOPYRIMIDINE COMPOUNDS AS PDE1 INHIBITORS” (Dart NeuroScience, LLC, priority 2017, published 2025)

These molecules were tested against human PDE1B enzyme (Homo sapiens (Human), UniProt Q01064) (assay: IMAP TR-FRET PDE1B enzymatic assay). Details: negative log of half-maximal molar inhibitory concentration; 200 nM FAM-cAMP; values given as bins.
Assay type: biochemical
Outline: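 Full-length GST-tagged human PDE1B (250 pg/well) in IMAP BSA buffer with 10 U/ml calmodulin and 2.5 mM CaCl2; compound pre-incubated 5 min at room temperature, then 200 nM (final) FAM-cAMP for 30 min. IMAP binding reagent/Tb added, 1 h; TR-FRET 520/490 ratio read. IC50 from sigmoidal dose-response fit.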

In the case of COc1ccc([C@@H](C)NC(=O)c2c(C)oc3ncnc(NC4(C)CC4)c23)c(F)c1 [Example 306, N-[(1R)-1-(2-Fluoro-4-methoxyphenyl)ethyl]-6-methyl-4-[(1-methylcyclopropyl)amino]furo[2,3-d]pyrimidine-5-carboxamide], the “PDE1b (pIC50)” value is reported as over 8.
For Cc1oc2ncnc(NC3(C)CC3)c2c1C(=O)N1CCC(c2ccccn2)CC1 [Example 301, 6-Methyl-N-(1-methylcyclopropyl)-5-[4-(pyridin-2-yl)piperidine-1-carbonyl]furo[2,3-d]pyrimidin-4-amine], the “PDE1b (pIC50)” value was over 8.
For Cc1oc2ncnc(NC3(C)CC3)c2c1C(=O)NCc1cnc(C2CC2)nc1 [Example 708, N-[(2-Cyclopropylpyrimidin-5-yl)methyl]-6-methyl-4-[(1-methylcyclopropyl)amino]furo[2,3-d]pyrimidine-5-carboxamide], the “PDE1b (pIC50)” value was over 8.
Cc1cc(C)cc(C2CCN(C(=O)c3c(C)oc4ncnc(NC5(C)CC5)c34)C2)c1 (stereo not shown) [Example 397, 5-[3-(3,5-Dimethylphenyl)pyrrolidine-1-carbonyl]-6-methyl-N-(1-methylcyclopropyl)furo[2,3-d]pyrimidin-4-amine] was tested, and the “PDE1b (pIC50)” value was over 8.
With Cc1oc2ncnc(NC3(C)CC3)c2c1C(=O)NCc1ncc2c(n1)CCC2 [Example 648, N-{5H,6H,7H-Cyclopenta[d]pyrimidin-2-ylmethyl}-6-methyl-4-[(1-methylcyclopropyl)amino]furo[2,3-d]pyrimidine-5-carboxamide] the “PDE1b (pIC50)” value was over 8.
For Cc1oc2ncnc(NC3(C)CC3)c2c1C(=O)N1CCC(c2ncc(Cl)cn2)CC1 [Example 344, 5-[4-(5-Chloropyrimidin-2-yl)piperidine-1-carbonyl]-6-methyl-N-(1-methylcyclopropyl)furo[2,3-d]pyrimidin-4-amine], the “PDE1b (pIC50)” value was over 8.
With Cc1oc2ncnc(NC3(C)CC3)c2c1C(=O)NCc1nc(C(F)(F)F)cs1 [Example 704, 6-Methyl-4-[(1-methylcyclopropyl)amino]-N-{[4-(trifluoromethyl)-1,3-thiazol-2-yl]methyl}furo[2,3-d]pyrimidine-5-carboxamide] the “PDE1b (pIC50)” value was over 8.

Same assay, conditions: negative log of half-maximal molar inhibitory concentration; 200 nM FAM-cAMP; values given as bins; read-out: PDE1b (pIC50) (converted)

COc1nccc(CNC(=O)c2c(C)oc3ncnc(NC4(C)CC4)c23)n1 [Example 449, N-[(2-Methoxypyrimidin-4-yl)methyl]-6-methyl-4-[(1-methylcyclopropyl)amino]furo[2,3-d]pyrimidine-5-carboxamide] and Cc1ccc(CNC(=O)c2c(C)oc3ncnc(NC4(C)CC4)c23)nn1 [Example 718, 6-Methyl-4-[(1-methylcyclopropyl)amino]-N-[(6-methylpyridazin-3-yl)methyl]furo[2,3-d]pyrimidine-5-carboxamide] fall in the same range of IC50: 10 to 100 nM for the first, 10 to 100 nM for the second.

First: Cc1oc2ncnc(NC3(C)CC3)c2c1C(=O)N(C)Cc1cc(C2CC2)[nH]n1 [Example 265, N-[(5-Cyclopropyl-1H-pyrazol-3-yl)methyl]-N,6-dimethyl-4-[(1-methylcyclopropyl)amino]furo[2,3-d]pyrimidine-5-carboxamide]
Second: Cc1oc2ncnc(NC3(C)CC3)c2c1C(=O)N(C)Cc1nc2ccc(F)cc2[nH]1 [Example 575, N-[(6-Fluoro-1H-1,3-benzodiazol-2-yl)methyl]-N,6-dimethyl-4-[(1-methylcyclopropyl)amino]furo[2,3-d]pyrimidine-5-carboxamide]
The IC50 of the first is lower: 10 to 100 nM for the first, 100 to 1000 nM for the second.

CCOCC1(CNC(=O)c2c(C)oc3ncnc(NC4(C)CC4)c23)CC1 [Example 275, N-{[1-(Ethoxymethyl)cyclopropyl]methyl}-6-methyl-4-[(1-methylcyclopropyl)amino]furo[2,3-d]pyrimidine-5-carboxamide] and Cc1oc2ncnc(NC3(C)CC3)c2c1C(=O)NC1(CO)CC1 [Example 146, N-[1-(Hydroxymethyl)cyclopropyl]-6-methyl-4-[(1-methylcyclopropyl)amino]furo[2,3-d]pyrimidine-5-carboxamide] fall in the same range of IC50: 10 to 100 nM for the first, 10 to 100 nM for the second.

Cc1oc2ncnc(NC3(C)CC3)c2c1C(=O)NC12CC(C1)C2 [Example 430, N-{Bicyclo[1.1.1]pentan-1-yl}-6-methyl-4-[(1-methylcyclopropyl)amino]furo[2,3-d]pyrimidine-5-carboxamide] and Cc1oc2ncnc(NC3(C)CC3)c2c1C(=O)NC1CCC1 [Example 212, N-Cyclobutyl-6-methyl-4-[(1-methylcyclopropyl)amino]furo[2,3-d]pyrimidine-5-carboxamide] fall in the same range of IC50: 10 to 100 nM for the first, 10 to 100 nM for the second.

Cc1oc2ncnc(NC3(C)CC3)c2c1C(=O)NC1CCc2cccnc21 (stereo not shown) [Example 316, N-{5H,6H,7H-Cyclopenta[b]pyridin-7-yl}-6-methyl-4-[(1-methylcyclopropyl)amino]furo[2,3-d]pyrimidine-5-carboxamide] and Cc1cccnc1NC(=O)c1c(C)oc2ncnc(NC3(C)CC3)c12 [Example 428, 6-Methyl-4-[(1-methylcyclopropyl)amino]-N-(3-methylpyridin-2-yl)furo[2,3-d]pyrimidine-5-carboxamide] fall in the same range of IC50: 100 to 1000 nM for the first, 100 to 1000 nM for the second.

Cc1oc2ncnc(NC3(C)CC3)c2c1C(=O)NCc1nccs1 [Example 73, 6-Methyl-4-[(1-methylcyclopropyl)amino]-N-(1,3-thiazol-2-ylmethyl)furo[2,3-d]pyrimidine-5-carboxamide] and Cc1oc2ncnc(NC3(C)CC3)c2c1C(=O)NCc1ccnn1C [Example 102, 6-Methyl-N-[(1-methyl-1H-pyrazol-5-yl)methyl]-4-[(1-methylcyclopropyl)amino]furo[2,3-d]pyrimidine-5-carboxamide] fall in the same range of IC50: 10 to 100 nM for the first, 10 to 100 nM for the second.

Cc1oc2ncnc(NC3(C)CC3)c2c1C(=O)NCC(C)C [Example 137, 6-Methyl-4-[(1-methylcyclopropyl)amino]-N-(2-methylpropyl)furo[2,3-d]pyrimidine-5-carboxamide] and Cc1oc2ncnc(NC3(C)CC3)c2c1C(=O)NCCC(F)(F)F [Example 754, 6-Methyl-4-[(1-methylcyclopropyl)amino]-N-(3,3,3-trifluoropropyl)furo[2,3-d]pyrimidine-5-carboxamide] fall in the same range of IC50: 10 to 100 nM for the first, 10 to 100 nM for the second.

Cc1oc2ncnc(NC3(C)CC3)c2c1C(=O)Nc1cnc(N2CCOCC2)cn1 [Example 658, 6-Methyl-4-[(1-methylcyclopropyl)amino]-N-[5-(morpholin-4-yl)pyrazin-2-yl]furo[2,3-d]pyrimidine-5-carboxamide] and Cc1oc2ncnc(NC3(C)CC3)c2c1C(=O)NC1(C)CCOC1 (stereo not shown) [Example 107, 6-Methyl-4-[(1-methylcyclopropyl)amino]-N-(3-methyloxolan-3-yl)furo[2,3-d]pyrimidine-5-carboxamide] fall in the same range of IC50: 10 to 100 nM for the first, 10 to 100 nM for the second.

Cc1oc2ncnc(NC3(C)CC3)c2c1C(=O)N1CCc2c(ccnc2OCF)C1 [Example 769, 5-[5-(Fluoromethoxy)-1,2,3,4-tetrahydro-2,6-naphthyridine-2-carbonyl]-6-methyl-N-(1-methylcyclopropyl)furo[2,3-d]pyrimidin-4-amine] and Cc1oc2ncnc(NC3(C)CC3)c2c1C(=O)N1CCc2nc(Cl)ccc2C1 [Example 287, 5-(2-Chloro-5,6,7,8-tetrahydro-1,6-naphthyridine-6-carbonyl)-6-methyl-N-(1-methylcyclopropyl)furo[2,3-d]pyrimidin-4-amine] fall in the same range of IC50: 10 to 100 nM for the first, 10 to 100 nM for the second.

Compared with Cc1oc2ncnc(NC3(C)CC3)c2c1C(=O)NCc1nnn(C)n1 [Example 738, 6-Methyl-N-[(2-methyl-2H-1,2,3,4-tetrazol-5-yl)methyl]-4-[(1-methylcyclopropyl)amino]furo[2,3-d]pyrimidine-5-carboxamide], Cc1oc2ncnc(NC3(C)CC3)c2c1C(=O)NCc1cncn1C [Example 115, 6-Methyl-N-[(1-methyl-1H-imidazol-5-yl)methyl]-4-[(1-methylcyclopropyl)amino]furo[2,3-d]pyrimidine-5-carboxamide] is higher in IC50: 10 to 100 nM for the first, 100 to 1000 nM for the second.

Cc1oc2ncnc(NC3(C)CC3)c2c1C(=O)NCc1nc2cc(F)ccc2n1C [Example 733, N-[(5-Fluoro-1-methyl-1H-1,3-benzodiazol-2-yl)methyl]-6-methyl-4-[(1-methylcyclopropyl)amino]furo[2,3-d]pyrimidine-5-carboxamide] and Cc1oc2ncnc(NC3(C)CC3)c2c1C(=O)NCc1cc2ccc(F)cc2[nH]c1=O [Example 584, N-[(7-Fluoro-2-oxo-1,2-dihydroquinolin-3-yl)methyl]-6-methyl-4-[(1-methylcyclopropyl)amino]furo[2,3-d]pyrimidine-5-carboxamide] fall in the same range of IC50: 10 to 100 nM for the first, 10 to 100 nM for the second.

Cc1nc(CNC(=O)c2c(C)oc3ncnc(NC4(C)CC4)c23)co1 [Example 747, 6-Methyl-N-[(2-methyl-1,3-oxazol-4-yl)methyl]-4-[(1-methylcyclopropyl)amino]furo[2,3-d]pyrimidine-5-carboxamide] and Cc1oc2ncnc(NC3(C)CC3)c2c1C(=O)NCCc1cccc(Cl)c1 [Example 204, N-[2-(3-Chlorophenyl)ethyl]-6-methyl-4-[(1-methylcyclopropyl)amino]furo[2,3-d]pyrimidine-5-carboxamide] fall in the same range of IC50: 10 to 100 nM for the first, 10 to 100 nM for the second.

Cc1oc2ncnc(NC3(C)CC3)c2c1C(=O)NC(C)c1ccc(F)cc1 (stereo not shown) [Example 68, N-[1-(4-Fluorophenyl)ethyl]-6-methyl-4-[(1-methylcyclopropyl)amino]furo[2,3-d]pyrimidine-5-carboxamide] and COCCn1ccc(NC(=O)c2c(C)oc3ncnc(NC4(C)CC4)c23)n1 [Example 440, N-[1-(2-Methoxyethyl)-1H-pyrazol-3-yl]-6-methyl-4-[(1-methylcyclopropyl)amino]furo[2,3-d]pyrimidine-5-carboxamide] fall in the same range of IC50: 10 to 100 nM for the first, 10 to 100 nM for the second.

In the case of Cc1cc2c(cn1)CCN(C(=O)c1c(C)oc3ncnc(NC4(C)CC4)c13)C2 [Example 283, 6-Methyl-5-(7-methyl-1,2,3,4-tetrahydro-2,6-naphthyridine-2-carbonyl)-N-(1-methylcyclopropyl)furo[2,3-d]pyrimidin-4-amine], the IC50 is reported as 10 to 100 nM.
